Experimental data taken from PubChem BioAssay (NCI).
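Cultured in 96-well plates, cells were exposed to test compound for 48 hours across five concentrations. TGI: concentration producing complete growth inhibition.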

Columns and labels:
Test in all cases: inhibition of tumour cell growth, NCI panel, 48 h
[1] = test system: HCT-116 colon
[2] = test system: SNB-19 CNS
[3] = test system: MDA-N
[4] = test system: EKVX NSCLC
[5] = test system: MDA-MB-435
[6] = test system: COLO 205 colon
[7] = test system: OVCAR-5 ovarian
[8] = test system: SK-MEL-2 melanoma
[9] = test system: HCC-2998 colon
[10] = test system: SF-295 CNS
[11] = test system: IGROV1 ovarian

Work on O=C(O)c1ccccc1.[Ag] yielded a TGI [1] of 46.3 µM, a TGI [2] of over 100 µM and a TGI [3] of 19.2 µM. The TGI [4] was 55.4 µM, the TGI [5] was 31.7 µM and the TGI [6] was 4.12 µM. For the same molecule, the TGI [7] was 45.1 µM, the TGI [8] was 30.2 µM and the TGI [9] was 37 µM. The TGI [10] was over 100 µM and the TGI [11] was 30.6 µM.
CCOC(=O)c1ccc(N=NN(C)C(=O)C(C)N)cc1 (configuration not stated) gave a TGI [1] of over 100 µM, a TGI [2] of over 100 µM and a TGI [3] of over 100 µM. For the same molecule, the TGI [4] was over 100 µM, the TGI [5] was over 100 µM and the TGI [6] was over 100 µM. For the same molecule, the TGI [7] was over 100 µM, the TGI [8] was over 100 µM and the TGI [9] was over 100 µM. The TGI [10] was over 100 µM and the TGI [11] was over 100 µM.
O=C(Cc1ccccc1)NCCc1ccc(O)c(O)c1 showed a TGI [1] of over 100 µM, a TGI [2] of over 100 µM and a TGI [3] of 34.9 µM. It also gave a TGI [4] of over 100 µM, a TGI [5] of 33.8 µM and a TGI [6] of over 100 µM. For the same molecule, the TGI [7] was over 100 µM, the TGI [8] was 80.1 µM and the TGI [9] was over 100 µM. It also gave a TGI [10] of over 100 µM and a TGI [11] of over 100 µM.
With CN(C)CCNc1ccc(C(=O)NCCCN(C)CCCNC(=O)c2ccc(NCCN(C)C)c3c(=O)c4ccccc4[nH]c23)c2[nH]c3ccccc3c(=O)c12 the TGI [1] was 0.409 µM, the TGI [2] was 1.92 µM and the TGI [3] was 0.583 µM. It also gave a TGI [4] of 3.8 µM, a TGI [5] of 0.286 µM and a TGI [6] of 0.727 µM. For the same molecule, the TGI [7] was 1.1 µM, the TGI [8] was 0.414 µM and the TGI [9] was 0.135 µM. It also gave a TGI [10] of 1.91 µM and a TGI [11] of 0.229 µM.
With C=CCNC(=S)Nc1sc2c(c1C(=O)OCC)CC(C)CC2 (configuration not stated) the TGI [1] was 66.3 µM, the TGI [2] was 62.5 µM and the TGI [3] was over 100 µM. The TGI [4] was 65.9 µM, the TGI [5] was over 100 µM and the TGI [6] was 35.6 µM. It also gave a TGI [7] of 76 µM, a TGI [8] of 48.4 µM and a TGI [9] of 44.1 µM. The TGI [10] was 59.5 µM and the TGI [11] was over 100 µM.
Work on CCOc1cc2c(cc1O)/C(=N\N)C[C@@H]1[C@@H]2CC[C@]2(C)[C@@H](O)CC[C@@H]12 yielded a TGI [1] of over 37.8 µM, a TGI [2] of over 100 µM and a TGI [3] of 4.53 µM. The TGI [4] was over 100 µM, the TGI [5] was 4.95 µM and the TGI [6] was over 56.5 µM. For the same molecule, the TGI [7] was over 86 µM, the TGI [8] was 99.5 µM and the TGI [9] was 12.8 µM. The TGI [10] was 6.15 µM and the TGI [11] was 39.2 µM.
Cc1[nH]c2ncn(/N=C/c3ccccc3O)c(=N)c2c1Cc1ccccc1 gave a TGI [1] of over 100 µM, a TGI [2] of over 100 µM and a TGI [3] of 93.8 µM. For the same molecule, the TGI [4] was over 100 µM, the TGI [5] was 48.8 µM and the TGI [6] was over 100 µM. The TGI [7] was over 100 µM, the TGI [8] was 83.9 µM and the TGI [9] was 88.7 µM. It also gave a TGI [10] of over 100 µM and a TGI [11] of over 100 µM.
